Assay results published in PMC9151520 (Archives of Toxicology, 2022).
Read-outs that look alike come from different tables or passages of the source.

Tests used:
[1] = tested on: p53 signaling (p53RE-bla HCT-116 cells); test: cells; details: Homo sapiens
[2] = tested on: p53 signaling (p53RE-bla HCT-116 cells); test: cells; format: cell-based; details: Homo sapiens; for EC50: HCT-116; for Emax: HCT-116, read-out: efficacy
[3] = tested on: p53 signaling (p53RE-bla HCT-116 cells); test: cells; format: cell-based; details: for Emax: HCT-116, read-out: efficacy
[4] = tested on: p53 signaling (p53RE-bla HCT-116 cells); test: cells; details: Homo sapiens; remark: listed apart in the source
[5] = tested on: p53 signaling (p53RE-bla HCT-116 cells); test: cells; format: cell-based
[6] = tested on: p53 signaling (p53RE-bla HCT-116 cells)
[7] = tested on: p53 signaling (p53RE-bla HCT-116 cells); remark: listed apart in the source
[8] = HCT-116, read-out: p53 activation EC50, HLM
[9] = HCT-116, read-out: p53 activation EC50, RLM
[10] = read-out: p53 activation EC50, RLM
[11] = HCT-116, read-out: p53 activation efficacy
[12] = HCT-116, read-out: p53 activation efficacy, primary screening
[13] = Homo sapiens, HCT-116, read-out: p53 activation EC50, No MS
[14] = read-out: p53 activation EC50, No MS

Structure (SMILES) | EC50 ([1]; HCT-116) [µM] | Emax ([1]; HCT-116, read-out: efficacy) [%] | EC50 [2] [µM] | EC50 [4, 8] [µM] | Viability EC50, HLM (p53RE-bla HCT-116 cells) | Viability EC50, No MS (p53RE-bla HCT-116 cells) | Viability EC50, RLM (p53RE-bla HCT-116 cells) | Viability Efficacy, HLM (p53RE-bla HCT-116 cells) | Viability Efficacy, No MS (p53RE-bla HCT-116 cells) | Viability Efficacy, RLM (p53RE-bla HCT-116 cells) | p53 activation EC50, No MS [5] | p53 activation Efficacy, No MS [5] | p53 activation EC50, HLM [6] | EC50 [1, 9] [µM] | EC50 [7, 10] [µM] | EC50 ([3]; Homo sapiens, HCT-116, 0.5 h) [µM] | also measured
CCOP(=S)(OCC)OP(=S)(OCC)OCC [Sulfotepp] | 14.3 | 37.4 | 16.6 | 21.6 | inactive | inactive | inactive | inactive | inactive | inactive | inactive | inactive | inactive | – | – | – | Emax [2]: 42.1%; EC50 [3]: Inactive
CNC(=O)Oc1ccccc1C(C)C [Isoprocarb] | – | – | – | 8.87 | inactive | inactive | inactive | inactive | inactive | inactive | inactive | inactive | inactive | 12 | 12.5 | – | –
CCOP(=S)(OCC)O/N=C(\C#N)c1ccccc1 [Phoxim] | 4.42 | 34.4 | 5.3 | 2.17 | inactive | inactive | inactive | inactive | inactive | inactive | inactive | inactive | inactive | 3.04 | 5.83 | 5.35 | Emax [2]: 42.2%; Emax ([3]; Homo sapiens): 43.5%
CCOP(=S)(OCC)SCn1nnc2ccccc2c1=O [Azinphos-ethyl] | 2.17 | 47.5 | 2.16 | 1.98 | inactive | inactive | inactive | inactive | inactive | inactive | inactive | inactive | inactive | – | – | 22.8 | –
COP(=S)(OC)SCN1C(=O)c2ccccc2C1=O [Phosmet] | 11.6 | 52.6 | 8.04 | 7.57 | inactive | inactive | inactive | inactive | inactive | inactive | inactive | inactive | inactive | – | – | 18.7 | Emax [2]: 49%; Emax ([3]; Homo sapiens): 48.2%
CCOP(=S)(OCC)OC(Cl)C(Cl)(Cl)Cl (stereo not drawn) [Chlorethoxyfos] | 11.4 | 35.9 | 7.79 | – | – | – | – | – | – | – | – | – | – | – | – | 0.75 | Emax [1, 11]: 43.1%; p53 activation efficacy [7]: 53.0303; EC50 ([7]; read-out: p53 activation EC50): 11.7 µM; Emax [4, 11]: 44%; Viability EC50 (p53RE-bla HCT-116 cells): inactive; Viability efficacy (p53RE-bla HCT-116 cells): inactive; p53 activation EC50 [5]: inactive; p53 activation efficacy [5]: inactive; p53 activation EC50 [6]: inactive
Nc1nc(Cl)nc2c1ncn2[C@H]1C[C@H](O)[C@@H](CO)O1 [Cladribine] | – | – | – | – | – | – | – | – | – | – | – | – | – | – | – | – | Emax [1, 11]: 45.7%; p53 activation efficacy [7]: 33.0267; Emax [4, 11]: 47.1%; Viability EC50 (p53RE-bla HCT-116 cells): inactive; Viability efficacy (p53RE-bla HCT-116 cells): inactive; p53 activation efficacy [5]: 91.229; Emax ([5]; Homo sapiens, HCT-116, read-out: p53 activation efficacy): 81%; EC50 ([5]; read-out: p53 activation EC50): 0.665 µM; p53 activation EC50 [6]: inactive
CCCCSP(=O)(SCCCC)SCCCC [Tribufos] | 2.16 | 44.2 | 1.32 | – | – | – | – | – | – | – | – | – | – | – | – | 0.74 | EC50 ([1]; HCT-116, read-out: p53 activation EC50, cherry pick confirmation): 1.86 µM; Emax ([1]; HCT-116, read-out: p53 activation efficacy, cherry pick confirmation): 41.6%; Emax [1, 12]: 36%; Emax [4, 12]: 34.6%; Viability EC50, cherry pick confirmation (p53RE-bla HCT-116 cells): inactive; Viability EC50, primary screening (p53RE-bla HCT-116 cells): inactive; Viability efficacy, cherry pick confirmation (p53RE-bla HCT-116 cells): inactive; Viability efficacy, primary screening (p53RE-bla HCT-116 cells): inactive; p53 activation EC50, cherry pick confirmation [5]: inactive; p53 activation EC50, primary screening [5]: inactive; p53 activation efficacy, cherry pick confirmation [5]: inactive; p53 activation efficacy, primary screening [5]: inactive; p53 activation EC50, cherry pick confirmation [6]: inactive; p53 activation efficacy, cherry pick confirmation [6]: inactive
CNC(=O)O/N=C(\SC)C(=O)N(C)C [Oxamyl] | 14.2 | 58.1 | 22.4 | 2.96 | inactive | inactive | inactive | inactive | inactive | inactive | inactive | inactive | inactive | 14.1 | 10.9 | 14.4 | –
CNP(=O)(OC)Oc1ccc(C(C)(C)C)cc1Cl (stereo not drawn) [Crufomate] | 4.36 | 66.6 | 3.29 | 4.17 | inactive | inactive | inactive | inactive | inactive | inactive | inactive | inactive | inactive | – | – | 0.33 | –
COP(N)(=O)SC (stereo not drawn) [Methamidophos] | 11.4 | 48.9 | 9.77 | 2.04 | inactive | inactive | inactive | inactive | inactive | inactive | inactive | inactive | inactive | 11.2 | 13.8 | 6.02 | –
Nc1nc(N)c2nc(-c3ccccc3)c(N)nc2n1 [Triamterene] | – | – | – | 16.4 | inactive | inactive | inactive | inactive | inactive | inactive | – | – | inactive | 30.5 | 42.4 | – | EC50 [5, 13]: 28.7 µM; EC50 [5, 14]: 27.6 µM
CCOP(=O)(OCC)Oc1cc(C)nc(C(C)C)n1 [Diazoxon] | 6.57 | 43.6 | 13.9 | – | – | – | – | – | – | – | – | – | – | – | – | 3.83 | Emax [2]: 61.3%; Emax ([3]; Homo sapiens): 58.5%; EC50 ([4]; HCT-116, read-out: p53 activation EC50): 20.2 µM; Emax [4, 11]: 39.6%; Viability EC50 (p53RE-bla HCT-116 cells): inactive; Viability efficacy (p53RE-bla HCT-116 cells): inactive; p53 activation EC50 [5]: inactive; p53 activation efficacy [5]: inactive; p53 activation EC50 [6]: inactive
COP(=S)(OC)Oc1ccc(SC)c(C)c1 [Fenthion] | 7.81 | 39 | 8.86 | 1.1 | inactive | inactive | inactive | inactive | inactive | inactive | inactive | inactive | inactive | 8.91 | 7.2 | 1.28 | –
Oc1c(Cl)cc(Cl)c(Cl)c1Cl [2,3,4,6-Tetrachlorophenol] | – | – | – | 34.9 | inactive | inactive | inactive | inactive | inactive | inactive | – | 39.2893% | inactive | 44.8 | – | – | p53 activation EC50, RLM [7]: inactive; EC50 [5, 13]: 17.7 µM; Emax ([5]; Homo sapiens, HCT-116, read-out: p53 activation Efficacy, No MS): 37.3%; EC50 [5, 14]: 34.6 µM
